Experiments:
Test in all cases: glycan microarray on Cu2O@Ag slides
Format in all cases: binding
[1] = biological target: T1, hGal-7 (human galectin-7) (Homo sapiens, UniProt P47929); conditions: immobilised glycan via azide linker; hGal-7 25 μg/mL
T1 construct: gene LGALS7; construct details only in supplement

[2] = biological target: T2, hGal-1 (human galectin-1) (Homo sapiens, UniProt P09382); conditions: immobilised glycan via azide linker; hGal-1 25 μg/mL
T2 construct: gene LGALS1; dimeric lectin; construct details only in supplement
T2 sequence (P09382 2-135): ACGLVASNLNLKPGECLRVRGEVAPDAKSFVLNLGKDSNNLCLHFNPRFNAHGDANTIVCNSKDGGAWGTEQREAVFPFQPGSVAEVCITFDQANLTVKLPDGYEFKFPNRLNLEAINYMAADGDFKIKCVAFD

[3] = biological target: T3, hGal-3 (human galectin-3) (Homo sapiens, UniProt P17931); conditions: immobilised glycan via azide linker; hGal-3 25 μg/mL
T3 construct: gene LGALS3; chimera-type galectin; construct details only in supplement
T3 sequence (P17931 2-250): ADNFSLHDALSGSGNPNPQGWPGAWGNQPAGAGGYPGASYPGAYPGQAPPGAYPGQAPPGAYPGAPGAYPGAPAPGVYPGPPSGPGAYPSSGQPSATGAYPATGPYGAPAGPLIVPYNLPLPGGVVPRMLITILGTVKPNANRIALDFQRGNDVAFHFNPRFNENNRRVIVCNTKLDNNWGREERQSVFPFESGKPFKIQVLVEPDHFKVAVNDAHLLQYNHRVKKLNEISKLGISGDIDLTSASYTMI

T1 sequence (P47929 whole entry): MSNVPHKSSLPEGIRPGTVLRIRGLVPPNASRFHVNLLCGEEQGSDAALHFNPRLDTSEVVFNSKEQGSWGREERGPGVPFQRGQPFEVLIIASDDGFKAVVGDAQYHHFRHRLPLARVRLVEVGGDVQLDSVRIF

## CC(=O)N[C@H]1[C@H](O[C@H]2[C@@H](O)[C@@H](CO)O[C@@H](O[C@H]3[C@H](O)[C@@H](O)C(O)O[C@@H]3CO)[C@@H]2O)O[C@H](CO)[C@@H](O)[C@@H]1O[C@@H]1O[C@H](CO)[C@H](O)[C@H](O)[C@H]1O (stereo partly drawn) [LNT]
[1]
  glycan microarray on Cu2O@Ag slides: with LNT showing the strongest binding affinity
[2]
  glycan microarray on Cu2O@Ag slides: LNT and LNnT, respectively) further increased the binding affinity

## CC(=O)N[C@H]1[C@H](O[C@H]2[C@@H](O)[C@@H](CO)O[C@@H](O[C@H]3[C@H](O)[C@@H](O)C(O)O[C@@H]3CO)[C@@H]2O)O[C@H](CO)[C@@H](O[C@@H]2O[C@H](CO)[C@H](O)[C@H](O)[C@H]2O)[C@@H]1O (stereo partly drawn) [LNnT]
[3]
  glycan microarray on Cu2O@Ag slides: The stronger affinity of LNnT compared to LNT

From publication PMC11600167 (JACS Au, 2024)
